Data reported in patent publication US20090264452A1 (priority 2004, published 2009).
Counter-ions that a name gives are not always drawn.

Molecular target: T1, human cannabinoid CB2 receptor (Homo sapiens, UniProt P34972)
T1 construct: expressed in transfected cells; host or cells: Saccharomyces cerevisiae strain MMY23 (integration at the ura3 locus, GPD promoter)
Assay: Cannabinoid CB2 receptor agonist activity, yeast reporter assay
Type: cell-based
Settings: for Emax: relative to HU210, yeast cells expressing human CB2, read-out: efficacy value (Emax) at the cloned human cannabinoid CB2 receptor; for EC50: yeast (Saccharomyces cerevisiae) cells expressing human CB2, agonist, read-out: EC50 at the cloned human cannabinoid CB2 receptor
Method: The cannabinoid CB2 receptor agonist activity of the compounds of formula (I) was determined in accordance with the following experimental method.
Yeast (Saccharomyces cerevisiae) cells expressing the human cannabinoid CB2 receptor were generated by integration of an expression cassette into the ura3 chromosomal locus of yeast strain MMY23. This cassette consisted of DNA sequence encoding the human CB2 receptor flanked by the yeast GPD promoter to the 5′ end of CB2 and a yeast transcriptional terminator sequence to the 3′ end of CB2. MMY23 expresses a yeast/mammalian chimeric G-protein alpha subunit in which the C-terminal 5 amino acids of Gpa1 are replaced with the C-terminal 5 amino acids of human Gαi3 (as described in Brown et al. (2000), Yeast 16:11-22). Cells were grown at 30° C. in liquid Synthetic Complete (SC) yeast media (Guthrie and Fink (1991), Methods in Enzymology, Vol. 194) lacking uracil, tryptophan, adenine and leucine to late logarithmic phase (approximately 6 OD600/ml).
Agonists were prepared as 10 mM stocks in DMSO. EC50 values (the concentration required to produce 50% maximal response) were estimated using dilutions of between 3- and 5-fold (BiomekFX, Beckman) into DMSO. Agonist solutions in DMSO (1% final assay volume) were transferred into black, clear bottom, microtitre plates from NUNC (96- or 384-well). Cells were suspended at a density of 0.2 OD600/ml in SC media lacking histidine, uracil, tryptophan, adenine and leucine and supplemented with 10 mM 3-aminotriazole, 0.1M sodium phosphate pH 7.0, and […] fluorescein di-β-D-glucopyranoside (FDGlu). This mixture (50 ul per well for 384-well plates, 200 ul per well for 96-well plates) was added to agonist in the assay plates (Multidrop 384, Labsystems). After incubation at 30° C. for 24 hours, fluorescence resulting from degradation of FDGlu to fluorescein due to exoglucanase, an endogenous yeast enzyme produced during agonist-stimulated cell growth, was determined using a Spectrofluor microtitre plate reader (Tecan; excitation wavelength: 485 nm; emission wavelength: 535 nm). Fluorescence was plotted against compound concentration an iteratively curve fitted using a four parameter fit to generate a concentration effect value. Efficacy (Emax) was calculated from the equation
Emax=Max[compound X]−Min[compound X]/Max[HU210]−Min[HU210]×100%
where Max[compound X] and Min[compound X] are the fitted maximum and minimum respectively from the concentration effect curve for compound X, and Max[HU210] and Min[HU210] are the fitted maximum and minimum respectively from the concentration effect curve for (6aR,10aR)-3-(1,1′-Dimethylheptyl)-6a,7,10,10a-tetrahydro-1-hydroxy-6,6-dimethyl-6H-dibenzo[b,d]pyran-9-methanol (HU210; available from Tocris). Equieffective molar ratio (EMR) values were calculated from the equation
Where EC50 [compound X] is the EC50 of compound X and EC50 [HU210] is the EC50 of HU210.

T1 sequence (P34972 whole entry): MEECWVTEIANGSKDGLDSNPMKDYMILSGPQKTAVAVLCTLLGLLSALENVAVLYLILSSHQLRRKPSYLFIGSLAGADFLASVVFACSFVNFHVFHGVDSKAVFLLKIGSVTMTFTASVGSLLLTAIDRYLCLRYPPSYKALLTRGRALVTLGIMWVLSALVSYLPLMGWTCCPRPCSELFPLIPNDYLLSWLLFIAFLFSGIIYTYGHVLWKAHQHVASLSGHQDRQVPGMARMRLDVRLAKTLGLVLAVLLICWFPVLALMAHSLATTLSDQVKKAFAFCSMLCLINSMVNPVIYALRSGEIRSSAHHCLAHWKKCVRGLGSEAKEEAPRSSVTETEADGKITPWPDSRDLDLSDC

SMILES: CC(C)c1nc(Nc2cccc(Cl)c2)ncc1C(=O)NCC1CCCCC1 [Example 1]
- Emax: > 50%
- EC50: < 300 nM

SMILES: CCc1nc(Nc2cccc(Cl)c2)ncc1C(=O)NCC1CCCCC1 [Example 3]
- Emax: > 50%
- EC50: < 300 nM

SMILES: CCc1nc(Nc2cccc(Cl)c2)ncc1C(=O)NCC1CCOCC1 [Example 4, 2-(3-Chlorophenylamino)-4-ethylpyrimidin-5-carboxylic acid (tetrahydro-pyran-4-ylmethyl)-amide]
- Emax: > 50%
- EC50: 300 to 1000 nM

SMILES: CC(c1nc(Nc2cccc(Cl)c2)ncc1C(=O)NCC1CCOCC1)N(C)C (stereo not shown) [Example 5, 2-[(3-chlorophenyl)amino]-4-[1-(dimethylamino)ethyl]-N-(tetrahydro-2H-pyran-4-ylmethyl)-5-pyrimidinecarboxamide hydrochloride]
- Emax: < 50%
- EC50: > 1000 nM

SMILES: CC(C)c1nc(Nc2cccc(Cl)c2)ncc1C(=O)NCC1CCOCC1 [Example 2, 2-(3-Chlorophenylamino)-4-isopropylpyrimidin-5-carboxylic acid (tetrahydro-pyran-4-ylmethyl)-amide]
- Emax: > 50%
- EC50: < 300 nM
